Assay results taken from patent US20240174684A1, “INHIBITORS OF cGAS ACTIVITY AS THERAPEUTIC AGENTS” (BELLBROOK LABS, LLC, priority 2021, published 2024).
Converted amounts (≈) assume the structure as drawn. Where two headings read alike, the source gives them in different places.

Key:
[1] = Metabolic stability in mouse hepatocytes; format: in vitro ADME; conditions: read-out: Mouse MS Stability t1/2
Procedure: (§1) ADME studies: Compound A and the compounds of the disclosure were tested for aqueous solubility (KSOL), metabolic stability (human and mouse […]) and permeability (Caco-2 and/or MDR1-MDCK cells) to provide an initial indication of oral bioavailability.
(§2) The favorable physicochemical properties are reflected in promising results in in vitro ADME tests. […] Metabolic stability, which was routinely measured with mouse and human hepatocytes, is outstanding, with t, greater than 2 hours for all of the compounds of the disclosure in which it has been measured. Cell permeability was measured using MDCK cells expressing human MDR1 (P-glycoprotein) to assess passive permeability as well as active transport out of the cell. […] Numerous compounds in Table 1 meet these permeability criteria, which is consistent with their design for TPSA <140 Å^2 and increased lipophilicity.
The MDCK-MDR1 permeability A ->B is shown in Table 2 below, where A represents 5-10 cm/s×10^−6; B represents 1-5 cm/s×10^−6; and C represents <1 cm/ss×10^−6. The metabolic stability half time, in both mouse and human hepatocytes, is also shown in Table 2 below, where A′ represents 100-200 minutes; B′ represents 200-300 minutes; and C′ represents >300 minutes.

[2] = Kinetic aqueous solubility (KSOL) in PBS, pH 7.4; format: physicochemical; conditions: aqueous buffer, kinetic from dmso stock
Procedure: as §1, §2

[3] = system: IFN-β production in PBMCs; assay: IFNβ ELISA in human primary PBMCs; format: cell-based; conditions: PBMC
In short: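 Human primary PBMCs stimulated with dsDNA or cGAMP to trigger a cGAS/STING-dependent type I IFN response. Secreted IFNβ quantified by ELISA across a dose response to derive IC50 values.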

cGAS = cGAS (Homo sapiens, UniProt Q8N884); assay: Transcreener cGAS enzymatic assay (FP); format: biochemical
Chain of cGAS (Q8N884 whole entry): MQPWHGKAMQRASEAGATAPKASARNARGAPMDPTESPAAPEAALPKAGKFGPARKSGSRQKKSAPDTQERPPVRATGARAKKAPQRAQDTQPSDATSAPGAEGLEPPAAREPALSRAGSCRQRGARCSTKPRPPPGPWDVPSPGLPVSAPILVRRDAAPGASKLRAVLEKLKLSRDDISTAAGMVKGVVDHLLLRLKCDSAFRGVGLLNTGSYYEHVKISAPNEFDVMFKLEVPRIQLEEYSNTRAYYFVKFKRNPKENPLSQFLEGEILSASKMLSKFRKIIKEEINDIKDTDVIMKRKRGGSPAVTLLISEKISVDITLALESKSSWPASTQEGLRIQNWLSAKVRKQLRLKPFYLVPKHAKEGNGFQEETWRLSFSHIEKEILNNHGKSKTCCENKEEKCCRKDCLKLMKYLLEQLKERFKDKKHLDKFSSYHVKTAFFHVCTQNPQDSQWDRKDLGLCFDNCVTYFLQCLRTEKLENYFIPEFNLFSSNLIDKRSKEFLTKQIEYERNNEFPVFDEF
In short: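 Human cGAS (30 nm) inhibition, 60 min reactions, FP read-out, standard conditions 100 μM ATP and GTP plus 62.5 nM bp ISD. Also run at 1 mM ATP and GTP (physiological), with 200 μM MnCl2, and with mouse cGAS under standard conditions; IC50 reported.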

MDR1 (P-glycoprotein) = assay: MDCK-MDR1 permeability A→B; format: in vitro ADME, Canine; conditions: dog; MDCK cells expressing human MDR1, A→B; read-out: MDCK-MDR Permeability A→B
In short: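 Permeability measured apical-to-basolateral in MDCK cells expressing human MDR1, reported as binned ranges in cm/s×10^−6. Metabolic stability determined as half-life in mouse and human hepatocytes, reported as binned ranges in minutes.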

[4] = Pharmacokinetics in C57BL/6 female mice, IV and PO; format: in vivo; conditions: plasma; for AUC: read-out: AUC0-tidc
Procedure: The pharmacokinetic characteristics of Compound 5 (BBL-100455) were estimated in C57BL/6 female mice following intravenous (IV) bolus and oral (PO) administration.
In short, the compound of the disclosure at 0.6 mg/mL in PBS containing 5% MSO and 25% PEG-400 was administered by IV injection (3 mg/kg). For PO (30 mg/kg), the compound of the disclosure at 3 mg/mL in PBS containing 10% MSO and 50% PEG-400 was orally administered. At the given time points (0.083 h, 0.167 h, 0.25 h, 0.50 h 1 h, 2 h, 4 h, 7 h, 16 h and 24 h), blood samples were collected using heparinized calibrated pipettes. Samples were centrifuged at 15000 rpm for 10 min. Subsequently, blood plasma was collected from the upper layer. The plasma was frozen at −80° C. for later analysis. At 2 h. 7 h and 24 h, brain samples were collected and immediately stored at […] for later analysis.
The analytical curve was constructed using ten non-zero standards with Compound 5 (BBL-100455) concentration ranging from 1 to 2500 ng/ml in the blank plasma and brain tissue. A blank sample (matrix sample processed without internal standard) was used to exclude contamination. The linear regression analysis of BBL- 100455 was performed by plotting the peak area ratio (y) against the BBL-100455 concentrations (x) in ng/ml.
The individual and average compound 5 concentration-time data for IV and PO dosed groups are presented in FIG. 4 for plasma concentration. All PK parameters were estimated using non-compartmental analyses with Phoenix/WINONLIN.

[5] = mouse, IV 3 mg/kg, C57BL/6 female mice
[6] = mouse, PO 30 mg/kg, C57BL/6 female mice

half-life [1]: > 300 min
solubility kinetic [2]: 8 µM (≈ 4.05 µg/mL)
IC50 (cGAS; high ATP and GTP (1 mM) to mimic physiological conditions, read-out: IC50 FP Physiological): 500 to 1000 nM
IC50 (cGAS; standard conditions: 100 μM ATP and GTP, 62.5 nM bp ISD, 60 minute reactions, read-out: IC50 FP Standard): 50 to 100 nM
Papp A→B (MDR1 (P-glycoprotein)): 5 to 10 ×10⁻⁶ cm/s
Vss ([4]; IV 3 mg/kg, C57BL/6 female mice): 853 mL/kg
bioavailability ([4]; female, C57BL/6, mouse, PO 30 mg/kg vs IV 3 mg/kg, bioavailability): 29.3%
AUC(0-inf) [4, 5]: 4860 ng·h/mL
clearance [4, 5]: 10.3 mL/min/kg
half-life [4, 5]: 138 min
AUC [4, 5]: 4630 ng·h/mL
AUC(0-inf) [4, 6]: 13600 ng·h/mL
CL/F [4, 6]: 36.8 mL/min/kg
Cmax [4, 6]: 2870 ng/mL
Tmax [4, 6]: 30 min
half-life [4, 6]: 135 min
AUC [4, 6]: 13600 ng·h/mL
SMILES: Cc1nc(N2C[C@@H](CC(=O)Nc3ccc(-c4ccccc4)cc3)C[C@H]2C(=O)O)c2oc3ccccc3c2n1 [Compound 5, (2S,4R)-4-(2-([1,1′-biphenyl]-4-ylamino)-2-oxoethyl)-1-(2-methylbenzofuro[3,2-d]pyrimidin-4-yl)pyrrolidine-2-carboxylic acid]
IC50 [3]: 1000 to 2500 nM
